Source: patent US7169591B1, “Preparation of enantio-specific epoxides” (priority 1999, dated 2007)

Tests used:
[1] = test system: Burkholderia sp. strain ENVBF1; assay: Enantiomeric ratio of monoepoxides (chiral GC), strain ENVBF1; assay type: cell-based
Method: (§1) To determine the ratio of R and S isomers of the epoxides formed from the oxidation of the alkenes, samples were analyzed for the presence of the epoxides and alkenes by gas chromatography as described above. When the epoxide concentration neared its maximum, or when the 80–90% of the substrate was degraded, the enantiomeric ratio of epoxides produced was determined by injecting a sample of the headspace gas onto a GC equipped with a chiral separation column (RT-BDEXSE; Restek, Inc., Bellefonte, Pa.) and a flame ionization detector. The column was maintained at 50° C.

[2] = test system: Burkholderia sp. strain ENVBF1; assay: Alkene degradation assay, whole cells of Burkholderia sp. strain ENVBF1 (T4MO); assay type: cell-based
Source text: (§2) Pseudomonas mendocina KR1 (Yen et al., J. Bacteriol., 173:5315–5327 (1991)), the T4MO mutant of KR1 Pseudomonas mendocina ENVpmx1 (McClay et al., The 97th Annual Meeting of ASM, Abstract K36, page 348 (1997)), Pseudomonas pickettii PKO1 (Byrne et al., Gene, 154:65–70 (1995)), Burkholderia cepacia G4 (Shields et al., Appl. Environ. Microbiol., 55:1624–1629 (1989)), Burkholderia sp. strain ENVBF1 (McClay et al., Appl. Environ. Microbiol., 62:2716–2722 (1996)), and Pseudomonas sp. strain ENVPC5 (McClay et al., 1996, supra) were cultured overnight at 30° C. in shake flasks containing basal salts medium (BSM; 10) supplemented with 0.4% sodium glutamate. Toluene was included in the vapor phase when induction of the toluene oxygenases was desired. Prior to substrate degradation assays the cultures were harvested by centrifugation and resuspended in BSM to an optical density at 550 nm (OD550) of 2, unless otherwise indicated. A standard curve of optical density vs. protein concentration for each strain was used to calculate the amount of protein per ml of the resuspended cultures.
(§3) To determine the range of alkenes that could be degraded by the toluene monooxygenase and the degradation kinetics of the toluene monooxygenases, 5-ml aliquots of the resuspended cultures were dispensed to 25-ml serum vials and crimp sealed with Teflon™ faced septa. Gaseous alkene substrates were added as pure compounds by using a gas-tight syringe, and other alkene substrates were added from stock solutions (20% in dimethylformamide). The amount of individual alkene substrates added were as follows: 1-butene, 2-butene, and 1,3-butadiene, 2.2 μM; epoxy butane, 1,3-butadiene monoxide, and epichlorohydrine, 8 μM; 1- and 2-pentene, 9 μM; hexene, 4 μM; octadiene, 4.5 μM; 2-chloropropene, 11 μM; and, 2,3-dichloropropene, 12 μM unless otherwise indicated. The serum vials were then placed horizontally on a rotary shaker operating at 100 rpm. During incubation the temperature was maintained between 20–22° C. for the Pseudomonads and at 37° C. for E. coli. The serum vials were periodically removed from the shaker and a 10–25 μl portion of the headspace gas was withdrawn through the septa and injected onto a gas chromatograph (GC) equipped with a 30 m Vocol column (Supelco Inc. Bellefonte, Pa.) maintained at 160° C., and a flame ionization detector. This allowed the monitoring of both the alkene compounds as well as the epoxide products. The same protocol was used to detect the formation of 1,2-butanediol and butadiene diepoxide, except that 1 μl of the culture media was injected onto the column rather than the headspace gas.

[3] = test system: Pseudomonas mendocina KR1; assay: Alkene degradation assay, whole cells of Pseudomonas mendocina KR1 (T4MO); assay type: cell-based
Source text: as §2, §3

[4] = test system: Pseudomonas mendocina KR1 (T4MO); assay: Enantiomeric ratio of monoepoxides (chiral GC), strain KR1; assay type: cell-based
Method: as §1

[5] = test system: Burkholderia cepacia G4 (T2MO); assay: Enantiomeric ratio of monoepoxides (chiral GC), strain G4; assay type: cell-based
Method: as §1

[6] = test system: Pseudomonas sp. strain ENVPC5; assay: Enantiomeric ratio of monoepoxides (chiral GC), strain ENVPC5; assay type: cell-based; details: PC5
Method: as §1

[7] = test system: Pseudomonas pickettii PKO1 (T3MO); assay: Enantiomeric ratio of monoepoxides (chiral GC), strain PKO1; assay type: cell-based; details: KO1 (PKO1)
Method: as §1

[8] = test system: Pseudomonas sp. strain ENVPC5; assay: Alkene degradation assay, whole cells of Pseudomonas sp. strain ENVPC5 (T4MO); assay type: cell-based; details: for added substrate degraded: in 20 hours
Source text: as §2, §3

Burkholderia cepacia G4 = assay: Alkene degradation assay, whole cells of Burkholderia cepacia G4 (T2MO); assay type: cell-based; details: for alkene degraded that was detected as the epoxide product: toluene induced G4, 4.4 μmoles 1,3-butadiene or 2.2 μmoles 2-butene
Source text: as §2, §3

alkane hydroxylase = biological target: T1, alkane hydroxylase (Ectopseudomonas oleovorans, UniProt P12691); details: cited from earlier work
T1 sequence (P12691 1-401): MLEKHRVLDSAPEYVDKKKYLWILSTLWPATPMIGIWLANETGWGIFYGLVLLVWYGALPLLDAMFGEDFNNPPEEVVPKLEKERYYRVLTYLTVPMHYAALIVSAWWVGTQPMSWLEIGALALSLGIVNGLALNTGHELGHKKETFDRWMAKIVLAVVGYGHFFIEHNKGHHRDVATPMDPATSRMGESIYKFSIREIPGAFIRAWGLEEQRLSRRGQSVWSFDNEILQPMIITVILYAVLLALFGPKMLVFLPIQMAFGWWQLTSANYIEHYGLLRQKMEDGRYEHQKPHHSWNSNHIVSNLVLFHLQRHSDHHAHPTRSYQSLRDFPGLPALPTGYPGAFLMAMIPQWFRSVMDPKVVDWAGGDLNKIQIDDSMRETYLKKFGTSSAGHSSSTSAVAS

wild type organisms = assay: Alkene oxidation and epoxide detection (GC, PNBP), wild type organisms; assay type: cell-based; details: for epoxide detection during oxidation: wild type organisms
Method: as §3
The only epoxides relevant to this study that were commercially available were 1,3-butadiene mono-, and diepoxide. These were used in GC analyses to determine retention times and to quantitate the conversion of 1,3-butadiene to the corresponding epoxides. To verify that the observed peaks were epoxides, a modification of the method of van Hylckama et al. (van Hylckama et al., Appl. Environ. Microbiol., 62:3304–3312 (1996)) was used, whereby epoxides were conjugated with PNBP to form intensely colored adducts of the epoxides. Serum vials were prepared as before, except that prior to sealing the vials, Durham tubes were placed inside the vials, with the opening of the Durham tube extending out of the liquid. The substrate was then added and the vials were incubated with moderate shaking at a 45° angle to prevent the culture liquid from entering the Durham tube. The transformation of the alkenes was monitored by GC analysis. […] The vials were then allowed to incubate for 8 hours before they were opened and the epoxide containing PNBP withdrawn. The total volume of PNBP solution was combined with an equal volume of acetone-triethylamine (50:50) and mixed rapidly. Epoxide/PNBP adducts were detected by spectra analysis (400–700 nm).

[9] = test system: E. coli (pRS202) expressing T4MO; assay: Alkene degradation assay, E. coli (pRS202) expressing T4MO; assay type: cell-based, Escherichia coli DH10B
Method: Escherichia coli DH10B containing the plasmid pRS202 (Pikus et al., Biochemistry, 35:9106–9119 (1996); Pikus et al., Biochemistry, 36:9283–9289 (1997)) was prepared in a similar manner except it was grown at 37° C. in LB media, and was resuspended to an OD550 of 4 in LB media with 0.3–1 mM IPTG to induce expression of T4MO.
as §3

[10] = test system: Pseudomonas mendocina ENVpmx1; assay: Alkene degradation assay, T4MO deficient strain Pseudomonas mendocina ENVpmx1; assay type: cell-based
Source text: as §2, §3

[11] = ENVBF1, following 30 minutes incubation
[12] = following 30 minutes incubation
[13] = rate determined after 60 minutes of incubation

C=CC=C [1,3-butadiene]
monoepoxide formed, R enantiomer [1]: 22%
monoepoxide formed, S enantiomer [1]: 78%
Specific activity of toluene monooxygenase, substrate degraded [2, 11]: 0.13 μM substrate degraded/minute/mg protein
added substrate degraded ([3]; in 20 hours): 50%
substrate degraded ([3]; in 20 hours): 1.1 µmol
monoepoxide formed, R enantiomer [4]: 22.4%
monoepoxide formed, S enantiomer [4]: 77.6%
monoepoxide formed, R enantiomer [5]: 8.1%
monoepoxide formed, S enantiomer [5]: 91.9%
monoepoxide formed, R enantiomer [6]: 32.7%
monoepoxide formed, S enantiomer [6]: 67.3%
monoepoxide formed, R enantiomer [7]: 19.6%
monoepoxide formed, S enantiomer [7]: 80.4%
Specific activity of toluene monooxygenase, substrate degraded [8, 12]: 0.09 μM substrate degraded/minute/mg protein
added substrate degraded [8]: 50%
time until oxidized to a concentration below the limits of detection (Burkholderia cepacia G4; G4): ≤ 6 h
alkene degraded that was detected as the epoxide product (Burkholderia cepacia G4): > 95%

C=CCCCCC=C [1,7-octadiene]
enantiomeric purity of the (R) epoxide formed (alkane hydroxylase): 98%

C=CCCC [1-pentene]
monoepoxide formed, R enantiomer [1]: 66.3%
monoepoxide formed, S enantiomer [1]: 33.7%
degradation (wild type organisms; all the wild type strains): efficiently degraded
degradation by the clone of T4MO [9]: degraded
Specific activity of toluene monooxygenase, substrate degraded [2, 11]: 0.05 μM substrate degraded/minute/mg protein
Specific activity of toluene monooxygenase, substrate degraded [3, 12]: 0.21 μM substrate degraded/minute/mg protein
monoepoxide formed, R enantiomer [4]: 54.2%
monoepoxide formed, S enantiomer [4]: 45.8%
monoepoxide formed, R enantiomer [5]: 100%
monoepoxide formed, S enantiomer [5]: 0%
monoepoxide formed, R enantiomer [6]: 72.5%
monoepoxide formed, S enantiomer [6]: 27.5%
monoepoxide formed, R enantiomer [7]: 64.6%
monoepoxide formed, S enantiomer [7]: 35.4%
Specific activity of toluene monooxygenase, substrate degraded [8, 12]: 0.15 μM substrate degraded/minute/mg protein
Specific activity of toluene monooxygenase, substrate degraded (Burkholderia cepacia G4; G4, following 30 minutes incubation): 0.08 μM substrate degraded/minute/mg protein

C=C(Cl)CCl [2,3-chloropropene, 2,3-dichloropropene]
epoxide detection during oxidation (wild type organisms): no epoxides were detected
amount oxidized, less than the amount of 2-chloropropene degraded by the same strain ([2]; ENVBF1): 75.6%
Specific activity of toluene monooxygenase, substrate degraded ([2]; ENVBF1, rate determined after 60 minutes of incubation): 0.08 μM substrate degraded/minute/mg protein
amount oxidized, less than the amount of 2-chloropropene degraded by the same strain [3]: 95.2%
Specific activity of toluene monooxygenase, substrate degraded [3, 13]: 0.01 μM substrate degraded/minute/mg protein
amount oxidized, less than the amount of 2-chloropropene degraded by the same strain [8]: 66.0%
Specific activity of toluene monooxygenase, substrate degraded [8, 13]: 0.12 μM substrate degraded/minute/mg protein
amount degraded compared with the T4MO-expressing organisms (Burkholderia cepacia G4; G4): twice as much
Specific activity of toluene monooxygenase, substrate degraded (Burkholderia cepacia G4; G4, rate determined after 60 minutes of incubation): 0.23 μM substrate degraded/minute/mg protein

CC=CC [2-butene]
Specific activity of toluene monooxygenase, substrate degraded [2, 11]: 0.12 μM substrate degraded/minute/mg protein
time to degrade all the substrate [3]: 3.5 h
added substrate degraded ([3]; in 20 hours): Greater than 95%
Specific activity of toluene monooxygenase, substrate degraded [8, 12]: 0.17 μM substrate degraded/minute/mg protein
added substrate degraded [8]: Greater than 95%
alkene degraded that was detected as the epoxide product (Burkholderia cepacia G4): 43%

C=C(C)Cl [2-chloropropene]
epoxide detection during oxidation (wild type organisms): no epoxides were detected
substrate degraded ([2]; ENVBF1, first 3 hours of incubation): 2.3 µmol
Specific activity of toluene monooxygenase, substrate degraded [2, 11]: 0.16 μM substrate degraded/minute/mg protein
substrate degraded ([2]; ENVBF1, following 17 hours): 6.3 µmol
substrate degraded ([3]; first 3 hours of incubation): 2.1 µmol
Specific activity of toluene monooxygenase, substrate degraded [3, 12]: 0.07 μM substrate degraded/minute/mg protein
additional substrate degraded ([3]; following 17 hours): 0.84 µmol
substrate degraded ([8]; first 3 hours of incubation): 4 µmol
Specific activity of toluene monooxygenase, substrate degraded [8, 12]: 0.18 μM substrate degraded/minute/mg protein
additional substrate degraded ([8]; following 17 hours): 1.0 µmol

C=CCCCCC1CO1 (stereo not drawn) [7,8-epoxy-1-octene]
enantiomeric purity of the (R) epoxide formed (alkane hydroxylase): 83%

C=CC1CO1 (stereo not drawn) [BME, 1,3-butadiene monoepoxide]
epoxide oxidized ([2]; induced ENVBF1, 24 hours): 13.4 µmol
epoxide degraded ([2]; uninduced ENVBF1, 24 hours): less than 1.3 μmoles
epoxide degraded (Burkholderia cepacia G4; induced G4 in the presence of butadiene, approximately 5 hr): 0.7 µmol
epoxide degraded (Burkholderia cepacia G4; induced G4 in the presence of toluene, approximately 5 hr): 0.5 µmol
epoxide degraded (Burkholderia cepacia G4; toluene-induced G4, pure BME, first hour): 8 µmol
epoxide oxidized (Burkholderia cepacia G4; uninduced G4, first hour): less than 1 μmole

hexene
epoxide detection during oxidation (wild type organisms): no epoxides were detected
degradation by the clone of T4MO [9]: degraded
degradation compared with the wild type strains [10]: at a greater rate than the wild type strains
epoxide detection during oxidation [10]: no epoxides were detected

octadiene
epoxide detection during oxidation (wild type organisms): no epoxides were detected
degradation by the clone of T4MO [9]: did not oxidize
degradation compared with the wild type strains [10]: at a greater rate than the wild type strains
epoxide detection during oxidation [10]: no epoxides were detected

pentene
epoxide detection during oxidation [10]: no epoxides were detected
